Two compounds from US7375078B2, “Heterocyclic self-immolative linkers and conjugates” (Genentech, Inc., priority 2004, dated 2008) can be followed below.

The target of the test is T1, cathepsin B (Homo sapiens, UniProt P07858).
T1 construct: purchased CalBiochem
Nature of the test: Cathepsin B cleavage of 7A and 7B. It counts as biochemical. Particulars: substrate 100 μM, activated cathepsin B 100 nM, 50 mM sodium acetate buffer pH 5, 37° C., 16 hrs, presence or absence of 1 mM cysteine; HPLC. How it is done:
Model compounds with a cleavable peptide unit and a heterocyclic self-immolative moiety, and conjugates of Formula I can be tested for stability and kinetics of enzymatic hydrolysis by the methods of de Groot, et al (1999) J. Med. Chem. 42(25):5277-5283.
FIG. 2 is a schematic representation of the cleavage mechanism.
A cathepsin B (CalBiochem) stock solution at 28.4 μM was diluted to 1 μM in 50 mM sodium acetate buffer pH 7.5, containing 2 mM DTT. Activation was carried out at 37° C. for 15 minutes.
Substrate compounds 7A and 7B were diluted to 100 μM in 50 mM sodium acetate buffer pH 5. Activated cathepsin B was added to a final concentration of 100 nM and the cleavage reaction was carried out at 37° C. for 16 hrs in the presence or absence of 1 mM cysteine.
Reversed-phase separation of cleavage products was carried out using an Agilent 1100 HPLC system. UV signal was monitored at 214, 254 and 380 nm. A Poroshell 300SB-C18 column (No.660750-902) from Agilent was used. Mobile phases A and B contained 0.05% TFA aqueous solution and CH3CN containing 0.05% TFA, respectively. […] The cleavage product of 4-nitroaniline was monitored by its distinct absorbance at 380 nm in the void volume. […]

Molecules are shown by their SMILES.

Turning to `CC(C)[C@@H](NC(=O)OC(C)(C)C)C(=O)N[C@H](CCCNC(N)=O)C(=O)Nc1nc(C(F)(F)F)c(COC(=O)Nc2ccc([N+](=O)[O-])cc2)s1` [Compound 7A], the “cleavage reaction (disappearance of substrate, release of 4-nitroaniline)” value is “complete”. Then `CC(C)[C@@H](NC(=O)CCCCCN1C(=O)C=CC1=O)C(=O)N[C@H](CCCNC(N)=O)C(=O)Nc1nc(C(F)(F)F)c(COC(=O)Nc2ccc([N+](=O)[O-])cc2)s1` [Compound 7B], with “complete”.
